In patent publication US20230285280A1, “A DEVICE FOR USE IN THE DELIVERY OF AN ACTIVE AGENT” (ROYAL COLLEGE OF SURGEONS IN IRELAND, priority 2020, published 2023):

Test: Active agent release from scaffold or scaffold+matrix in PBS at 37° C.
Type: physicochemical
Procedure: Release of nanoparticle-encapsulated active agent (either pirfenidone or prednisolone) from a matrix and release of active agent from a scaffold was assessed in the same manner. In short, one sample (of either a printed mesh (scaffold) or mesh+gel (scaffold and matrix)) per 1.5 mL eppendorf tube was incubated in 1 mL of PBS at 37° C. under agitation in a heated water bath. The release buffer was completely exchanged at selected time points of T=4 hrs, T=24 hrs, T=48 hrs, T=1 week, T=2 weeks, T=3 weeks, and T=4 weeks, T=6 weeks, T=8 weeks, T=10 weeks, T=12 weeks with samples stored at -20° C. until analysis. Release studies were undertaken for up to 28 days and released active agent concentrations were determined via extrapolation from a standard curve. Blank scaffolds (containing no active agent) were tested and readings were subtracted as an additional background control. Samples containing pirfenidone were analysed at 317 nm and samples containing prednisolone were analysed at 245 nm. Using either 3D drug printing or nanoparticle incorporation, it was possible to achieve a rapid release of active agent in the first 24 hours as well as a continuous release of drug over a 28 day period (FIG. 19).

| pirfenidone release when scaffold combined with the hyaluronic acid matrix (higher (50 kDa) molecular weight PCL scaffold, in the presence of the hydrated matrix, FIG. 9B) | pirfenidone release when scaffold combined with the hyaluronic acid matrix (lower molecular weight PCL scaffold, added to the matrix, FIG. 9A) | daily and cumulative prednisolone drug release (from 3D printed PCL scaffolds with no surrounding matrix, FIG. 10) | cumulative prednisolone release (from nanoparticles in a freeze-dried scaffold and hyaluronic acid matrix, FIG. 11) | SMILES |
| --- | --- | --- | --- | --- |
| negligible difference | release was slowed |  |  | Cc1ccc(=O)n(-c2ccccc2)c1 [pirfenidone, 5-Methyl-1-phenylpyridin-2-one] |
|  |  | biphasic release up to 28 days | rapid and sustained release | C[C@]12C=CC(=O)C=C1CC[C@@H]1[C@@H]2[C@@H](O)C[C@@]2(C)[C@H]1CC[C@]2(O)C(=O)CO [prednisolone, 11β-11,17,21-Trihydroxypregna-1,4-diene-3,20-dione] |
